Measured values: US12377069B2, “Compounds, compositions, methods of using, and methods for preparing compounds” (UNIVERSITY OF LOUISVILLE RESEARCH FOUNDATION, INC., priority 2018, dated 2025)

Columns and labels:
C57B6/J mice = assay: LPS-induced sepsis survival; assay type: in vivo, mouse; conditions: LPS 20 mg/kg i.p.; for survival of septic mice: compound 20 mg/kg i.p.
Protocol: UAS03 (Ether) attenuates septic mortality. C57B6/J mice were injected with lipopolysaccharide intra-peritoneally at a septic dose of 20 mg/kg. The treated animals received either Urolithin-A or UAS03 (Ether) at 20 mg/kg intraperitoneal injection.
Preventive and therapeutic effect of UAS03 (Ether) in septic animals. Animals were injected with LPS intraperitoneally at 20 mg/kg dose to induce sepsis. For Ether+LPS group animals were given UAS03 (20 mg/kg; intraperitoneal) 1 hour prior LPS injection. LPS+Ether group received UAS03 1 hour post LPS injection.

[1] = tested on: C57BL/6, Nrf2^−/− and AhR^−/− mice; assay: Colon protein/mRNA expression after 7 days of oral treatment; assay type: in vivo, mouse; conditions: for AhR expression in colons of treated mice / Nrf2 and HO1 in the colons of wild type mice / expression of Cldn4 in the colons of mice: oral 20 mg/kg daily, 7 days; for Nrf2 and tight junction proteins (Cldn4, NQO1, Ocln, ZO1 and TJP3) in WT mice / Nrf2 and tight junction proteins in Nrf2^−/− and AhR^−/− mice: orally 20 mg/kg daily, seven days
Protocol: Immunoblots (Western blots): The total protein lysates were collected either from colon tissue/cells using radioimmunoprecipitation assay (RIPA) buffer (Sigma-Aldrich, USA) and quantified using BCA protein quantification kit (Thermo Scientific) as per instructional manual. Total protein (20-50 μg) of was resolved on NuPAGE™ 4-12% Bis-Tris gel (Novex Life technologies) and transferred to polyvinylidene difluoride membrane (0.22 μm pore; Millipore, USA). After blocking with 5% (w/v) skim milk powder (containing 1×TBS) for 1 h, the membrane was then incubated with respective antibodies at 4° C. overnight (dilutions of respective antibodies is given in Table A1). Next day, respective secondary antibody conjugated with Horseradish peroxidase were probed and the chemiluminescent substrate was used to detect the protein bands (ImageQuant LAS 4000). Densitometry analysis of bands were done using ImageJ software. Antibodies for Cldn4, Ocln, Cldn1, Cyp1A1, AhR, HO1, NQO1, Keap1, β-actin and Lamin B were purchased from Santa Cruz Biotechnologies (USA) and Nrf2 from Novus Biologicals (USA).
Tissue processing for RNA and protein analysis: Mice were treated with as described in results section. Mice were euthanized with CO2 asphyxiation followed by cervical dislocation. Colon was dissected out and luminal contents were flushed out with cold PBS (containing PMSF and Sodium orthvandate). Small portion of colon was snap frozen in liquid nitrogen and stored at −80° C. for RNA analysis. For preparation of protein samples, colon was opened longitudinally and mucosa was scraped in ice-cold 1×PBS using pre-chilled glass slide and centrifuged at 300×g for 10 min at 4° C. Supernatant was discarded and pellet was suspended in RIPA buffer (containing 1× protease inhibitor) and vortexed at high speed. After 30 min incubation on ice, samples were centrifuged at 13,000×g for 20 min at 4° C. Supernatant was collected and protein was quantified using BCA protein quantification kit. The lysates were used appropriately for Western blots.

C57BL/6 mice = assay: In vivo Miles assay (VEGF); conditions: 20 mg/kg oral gavage; VEGF 2.5 ng/mouse
Protocol: Acute intoxication of alcohol can induce microvasculature leakage as well as direct exposure to endothelium leads to disruption of endothelial integrity. […] In addition, increased endothelial permeability enhances the extravasation of immune cells into liver leading to increased inflammation. To examine the effect of UroA/UAS03 on endothelial cell permeability, we utilized in vivo Evans Blue permeability assay. Briefly, C57BL/6 mice (n=4/group) were given LPS (100 μg) i.p. followed by treatment with UAS03 or UroA (20 mg/kg) after 1 h and 18 h. Evans blue (i.v.) was given to mice (24 h post LPS treatment) and 30 min later mice were euthanized and the Evans Blue from lung and liver tissues was extracted using formamide. The levels of Evans Blue was determined by OD at 620 nm. […] To evaluate direct impact of UroA or UAS03 on endothelial barrier function, we used in vivo Miles assay to test blood vessel permeability. We used vascular endothelial growth factor (VEGF) as vasodilator. In this assay, C57BL/6 mice (n=3 per group) were given vehicle or UroA or UAS03 (20 mg/kg; oral gavage). After 3 h, Evans blue (100 μL of 1% solution) was administered i.v. followed by intra-dermal administration of VEGF (2.5 ng/mouse) or PBS (control). […]

NF-κB = NF-κB EMSA assay; assay type: cell-based, mouse; conditions: LPS 50 ng/mL, 6 hr
Protocol: NF-κB EMSA assay: RAW 264.7 cells or BMDM were plated in 100 mm dishes (1×10^6) in DMEM supplemented with 10% fetal bovine serum (FBS), 100 U/ml penicillin, and […]. Cells were allowed to grow for 24 hr and after incubation, cells were treated with LPS (50 ng/mL) with and without UroA (50 μM) and UAS03 (50 μM) for 6 hr. After treatments, culture medium was removed and washed with PBS. Cells were scraped and pelleted down in PBS. Supernatant was discarded and pellet was used for isolation of nuclear and cytosolic protein using NE-PER Nuclear and Cytoplasmic kit (Thermo Scientific; Cat #78833). Later nuclear protein (2 μg) was used for EMSA using Non-Radioactive EMSA Kits with IR Fluo-Probes for Nuclear factor kappa B p65 (Viagene Biotech Inc Cat #IRTF282 60).

colon explants = assay: Colon explant culture; parameters: species or system mouse; conditions: 50 μM, 24 h
Protocol: Colon explant culture: Colon tissue pieces (0.5-1 cm length) from wild type (C57BL/6) or Nrf2^−/− or AhR^−/− mice were cultured in triplicates for 24 h in complete DMEM-high glucose medium (supplemented with 10% fetal bovine serum, 1× penicillin-streptomycin solution) in a humidified atmosphere in the presence of vehicle (0.01% DMSO), UroA (50 μM) or UAS03 (50 μM). The tissues were processed for protein preparation (tissue lysates with RIPA plus buffer) or total RNA isolation. These tissue lysates or RNA were used to determine the expression of Nrf2, Cldn4 and AhR.

Oc1ccc2c(c1)COc1cc(O)ccc1-2 [UAS03, 6H-benzo[c]chromene-3,8-diol]
survival, pretreated (1 hour prior LPS) (C57B6/J mice; 20 mg/kg i.p.): 70%
survival, therapeutic group (1 hour post LPS) (C57B6/J mice; 20 mg/kg i.p.): 100%
survival of septic mice (C57B6/J mice): 90%
AhR expression in colons of treated mice [1]: upregulated
Nrf2 and HO1 in the colons of wild type mice [1]: upregulated
expression of Cldn4 in the colons of mice [1]: elevated expression
Nrf2 and tight junction proteins (Cldn4, NQO1, Ocln, ZO1 and TJP3) in WT mice [1]: upregulated
Nrf2 and tight junction proteins in Nrf2^−/− and AhR^−/− mice [1]: did not appear to induce
endothelial barrier leakage induced by VEGF (C57BL/6 mice): protected from endothelial barrier leakage
LPS-induced NF-κB activation in macrophages (NF-κB): reduced the NF-κB activation
Cldn4 and NQO1 in Nrf2^−/− and AhR^−/− colon explants (colon explants): did not appear to induce
expression of Nrf2, NQO1 and Cldn4 in WT colon explants (colon explants): induced the expression

O=c1oc2cc(O)ccc2c2ccc(O)cc12 [UroA, 3,8-dihydroxy-6H-dibenzo[b,d]pyran-6-one]
survival of septic mice (C57B6/J mice): 20%
AhR expression in colons of treated mice [1]: upregulated
Nrf2 and HO1 in the colons of wild type mice [1]: upregulated
expression of Cldn4 in the colons of mice [1]: elevated expression
Nrf2 and tight junction proteins (Cldn4, NQO1, Ocln, ZO1 and TJP3) in WT mice [1]: upregulated
Nrf2 and tight junction proteins in Nrf2^−/− and AhR^−/− mice [1]: did not appear to induce
endothelial barrier leakage induced by VEGF (C57BL/6 mice): protected from endothelial barrier leakage
LPS-induced NF-κB activation in macrophages (NF-κB): reduced the NF-κB activation
Cldn4 and NQO1 in Nrf2^−/− and AhR^−/− colon explants (colon explants): did not appear to induce
expression of Nrf2, NQO1 and Cldn4 in WT colon explants (colon explants): induced the expression
